{"source": "patent US10859587B2", "about": "“Application of artificially expressed HSP27 protein in detecting a residue of a β2-adrenergic receptor agonist-based drug” (HENAN ACADEMY OF AGRICULTURAL SCIENCE, priority 2016, dated 2020)", "key": {"[1]": {"tested_on": "artificially expressed HSP27 protein", "assay": "ELISA binding experiment between HSP27 protein and biotin-conjugated small molecules", "conditions": "100 ng/mL biotin-conjugated small molecule; HSP27 coated in gradient from 100 μg/mL", "description": "1. The bacteria solution of BL21 (DE3) host bacteria of artificially expressed HSP27 was subjected to ultrasonication, and then coated in gradient on a ELISA plate with an initial concentration of 100 μg/mL (based on the protein) in an amount of 50 μL/well;\n2. 100 ng/mL of small molecules conjugated biotin was added into the resultant ELISA plate in an amount of 50 μL/well, mixed well on a shaker, and incubated at 37° C. for 30 min in the dark; the ELISA plate was washed with an ELISA plate washing machine for 4 times, or the liquid in the wells of the ELISA plate was manually removed by shaking out, each well was filled with diluted buffer solution, and then shaken out the liquid to dry again, and washing as repeated in this way for 4 times;\n3. HRP-labeled streptavidin conjugate was added into the ELISA plate, and the reaction was carried out at 37° C. for 30 min; washing was performed in the same way as the above step for 4 times.\n4. TMB solution was added into corresponding microwells according to the required amount of 100 μL per well, and the plate was shaken on the ELISA plate shaker for 30 s, and subjected to color development at room temperature for 10 min;\n5. 50 μL of 2 mol/L sulfuric acid was added to each well to terminate the reaction, and the plate was shaken on the ELISA plate shaker for 30 s, and then the absorbance at 450 nm of each well was read with a microplate reader, and the results were judged (see FIG. 2 for the results)."}, "[2]": {"tested_on": "HSP27 polyclonal antiserum", "assay": "ELISA identification of artificially expressed HSP27 protein with HSP27 polyclonal antiserum", "assay_type": "binding", "conditions": "HSP27 1 μg/mL", "description": "The artificially expressed HSP27 protein at an optimal concentration was selected as a coating antigen, and coated on the ELISA plate in an amount of 50 μL/well. The plate was placed in a 37° C. constant temperature incubator for reaction for 2 h, washed with PBST for 4 times, and air-dried at room temperature. BSA with a mass fraction of 1% was added as a blocking solution in amount of 200 μL/well, and reaction was carried out at a constant temperature of 37° C. for 1 h. The resultant plate was washed with PBST for 4 times, and air-dried at room temperature. Then, HSP27 polyclonal antiserum with gradient concentrations was added at 50 μL/well, a negative control (NC) was set, and the plate was held at 37° C. for 30 min, and washed for 4 times. 50 μL of goat anti-mouse secondary antibody (1:1000) was added to each well, and the plate was held at 37° C. for 30 min, and then washed for 4 times. The color development reaction was carried out with TMB color developing solution in an amount of 100 μL/well, and 10 minutes later, the reaction was terminated with 50 μL of 2 mol/L H2SO4. The absorbance of each well was read at 450 nm with a microplate reader."}}, "data": [{"compound": "CC(Cc1ccc(O)cc1)NCC(O)c1cc(O)cc(O)c1", "note": "(stereo not shown) [Fenoterol]", "values": [{"measurement": "binding to HSP27 (ELISA, absorbance at 450 nm, FIG. 2)", "setting": "[1]", "value": "can bind to HSP27"}]}, {"compound": "CC(C)(C)NCC(O)c1cc(Cl)c(N)c(Cl)c1", "note": "(stereo not shown) [Clenbuterol]", "values": [{"measurement": "binding to HSP27 (ELISA, absorbance at 450 nm, FIG. 2)", "setting": "[1]", "value": "can bind to HSP27"}]}, {"compound": "artificially expressed HSP27 protein: HSP27 CDS cloned in pLSLa vector, expressed in BL21 (DE3) with IPTG, purified by agarose resin column", "values": [{"measurement": "absorbance at 450 nm", "setting": "[2]; serum dilution ratio 5000", "value": 4.00}, {"measurement": "absorbance at 450 nm", "setting": "[2]; serum dilution ratio 10000", "value": 3.92}, {"measurement": "absorbance at 450 nm", "setting": "[2]; serum dilution ratio 20000", "value": 4.00}, {"measurement": "absorbance at 450 nm", "setting": "[2]; serum dilution ratio 40000", "value": 3.77}, {"measurement": "absorbance at 450 nm", "setting": "[2]; serum dilution ratio 80000", "value": 3.50}, {"measurement": "absorbance at 450 nm", "setting": "[2]; serum dilution ratio 160000", "value": 2.60}, {"measurement": "absorbance at 450 nm", "setting": "[2]; serum dilution ratio 320000", "value": 1.63}, {"measurement": "absorbance at 450 nm", "setting": "[2]; serum dilution ratio 640000", "value": 0.97}, {"measurement": "absorbance at 450 nm", "setting": "[2]; serum dilution ratio 1280000", "value": 0.67}, {"measurement": "absorbance at 450 nm", "setting": "[2]; serum dilution ratio 2560000", "value": 0.51}]}, {"compound": "CC(CCc1ccc(O)cc1)NCC(O)c1ccc(O)cc1", "note": "(racemic) [Ractopamine]", "values": [{"measurement": "binding to HSP27 (ELISA, absorbance at 450 nm, FIG. 2)", "setting": "[1]", "value": "can bind to HSP27"}]}]}
